# Measured values reported in article PMC7751951 (Cancer chemotherapy and pharmacology, 2015).
# How the values were obtained:
# [1] = single-agent docetaxel 150–235 mg/m^2, children and adolescents with refractory solid tumors; cited from earlier work
# [2] = Toxicity, DLT and MTD in phase I trial
# [3] = early clinical trials in adults; cited from earlier work
# [4] = test system: recurrent or refractory solid tumors; assay: Tumor response; format: in vivo, human (children and adolescents)
# [5] = test system: ATPase activity of the Pgp drug efflux pump; conditions: introduction statement, no reference given; cited from earlier work
# [6] = human, in vivo, 21 days
# Pgp = conditions: adults, 2 mg/kg IV over 30 min; rhodamine uptake in CD56+ lymphocytes; cited from earlier work
# [7] = adults, 2 mg/kg IV over 30 min; cited from earlier work
# [8] = Plasma pharmacokinetics of tariquidar alone; format: in vivo, human (children and adolescents); conditions: human, intravenous, tariquidar in combination with chemotherapy, at all dose levels
# [9] = cited from earlier work
# [10] = test system: Breast Cancer Resistance Protein (BCRP/ABCG2); conditions: cited from earlier work
smiles,measurement,setting,value
CC(=O)O[C@@]12CO[C@@H]1C[C@H](O)[C@@]1(C)C(=O)[C@H](O)C3=C(C)[C@@H](OC(=O)[C@H](O)[C@@H](NC(=O)OC(C)(C)C)c4ccccc4)C[C@@](O)([C@@H](OC(=O)c4ccccc4)[C@H]21)C3(C)C [Docetaxel],"platelet counts less than 50,000/μL",[1],not observed
same,"participants with grade 3 thrombocytopenia (platelet count ≥10,000, <50,000/μL)","[2]; docetaxel in combination with tariquidar, three of nine participants",33%
COc1cccc2c1C(=O)c1c(O)c3c(c(O)c1C2=O)C[C@@](O)(C(=O)CO)C[C@@H]3O[C@H]1C[C@H](N)[C@H](O)[C@H](C)O1 [Doxorubicin],increase of systemic exposure in combination with tariquidar,[3],26%
same,Response,"[4]; person, metastatic adrenocortical carcinoma, two cycles of tariquidar in combination with doxorubicin",partial response
same,Best response [cycle],"[4]; subject 014, rhabdomyosarcoma, with tariquidar 2 mg/kg",partial response
COc1cc2c(cc1OC)CN(CCc1ccc(NC(=O)c3cc(OC)c(OC)cc3NC(=O)c3cnc4ccccc4c3)cc1)CC2 [Tariquidar],effect on ATPase activity of the Pgp drug efflux pump,[5],inhibits
same,"tariquidar-related dysgeusia (n = 3), grade",[6],1
same,"tariquidar-related hypotension (n = 2), grade",[6],2
same,"tariquidar-related nausea (n = 1), grade",[6],1
same,"tariquidar-related peripheral edema (n = 1), grade",[6],2
same,"tariquidar-related pruritus (n = 1), grade",[6],1
same,time for which maximum inhibition of Pgp was maintained,Pgp,24 h
same,area under the concentration time curve (AUC0–48),[7],12.6 µM·h
same,clearance,[7],160 mL/min/m^2
same,half-life,[7],26 h
same,Cmax,[8],> 2000 nM
same,tolerability in adults,[9],well tolerated
same,maximum tolerated dose of tariquidar,[2]; escalation up to 2 mg/kg,No maximum tolerated dose was achieved
same,inhibition of Breast Cancer Resistance Protein (BCRP/ABCG2),[10],inhibit
CCC1=C[C@@H]2CN(C1)Cc1c([nH]c3ccccc13)[C@@](C(=O)OC)(c1cc3c(cc1OC)N(C)[C@H]1[C@@](O)(C(=O)OC)[C@H](OC(C)=O)[C@]4(CC)C=CCN5CC[C@]31[C@@H]54)C2 [Vinorelbine],change in pharmacokinetics in combination with tariquidar,[3],No change
same,Best response [cycle],"[4]; subject 009, pancreatoblastoma, with tariquidar 1.5 mg/kg",complete radiographic response
CC(=O)O[C@H]1C(=O)[C@@]2(C)[C@H]([C@H](OC(=O)c3ccccc3)[C@]3(O)C[C@H](OC(=O)[C@H](O)[C@@H](NC(=O)c4ccccc4)c4ccccc4)C(C)=C1C3(C)C)[C@]1(OC(C)=O)CO[C@@H]1C[C@@H]2O [paclitaxel],increase of systemic exposure in combination with tariquidar,[3],44%
